In brackets after ≈: the same amount, converted by molar mass. Activity calls are given as the source filed them. The calls are words filed in the database; no cut-off is given here.
Columns and labels:
Alpha-glucosidase = Alpha-glucosidase (Saccharomyces cerevisiae S288c, UniProt P53341+P38158+P07265); test: Inhibition of yeast Alpha glucosidase 4-nitrophenyl-alpha-D-glucopyranoside incubated for 15 to 20 mins by Bio-rad microplate reader analysis; format: protein assay
Alpha-amylase = biological target: T1, Alpha-amylase (Sus scrofa domesticus, UniProt Q7M328); test: Inhibition of porcine pancreatic Alpha-amylase using starch as substrate preincubated for 10 mins followed by substrate addition and measured after 15 mins by Bio-rad microplate reader analysis; conditions: read-out: IC50
T1 sequence (Q7M328 whole entry): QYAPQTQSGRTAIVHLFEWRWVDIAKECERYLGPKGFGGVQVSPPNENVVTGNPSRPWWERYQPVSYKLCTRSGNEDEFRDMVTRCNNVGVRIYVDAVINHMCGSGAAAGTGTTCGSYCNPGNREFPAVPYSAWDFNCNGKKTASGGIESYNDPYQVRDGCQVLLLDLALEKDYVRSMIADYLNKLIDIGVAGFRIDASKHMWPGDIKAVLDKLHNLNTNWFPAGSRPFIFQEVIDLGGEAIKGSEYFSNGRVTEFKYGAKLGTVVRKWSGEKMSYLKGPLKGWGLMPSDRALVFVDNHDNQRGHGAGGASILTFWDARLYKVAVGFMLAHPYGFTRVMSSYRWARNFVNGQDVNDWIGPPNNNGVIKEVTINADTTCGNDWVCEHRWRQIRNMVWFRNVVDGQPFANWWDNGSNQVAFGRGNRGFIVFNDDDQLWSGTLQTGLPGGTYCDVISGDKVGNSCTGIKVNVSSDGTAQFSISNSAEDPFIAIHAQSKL

[1] = Antioxidant activity assessed as DPPH radical scavenging activity measured for 30 mins by spectrophotometric analysis; format: functional; conditions: read-out: IC50
PANC-1 [2] = test: Cytotoxicity against human PANC-1 cells assessed as inhibition of cell growth; format: functional, cell-based; conditions: Homo sapiens, PANC-1; read-out: IC50
PANC-1 [3] = test: Induction of ROS production in high glucose-induced human PANC-1 cells assessed as maximum fluorescence intensity at 10 uM incubated for 30 mins DCFDA-staining based flow cytometry analysis (reference value: 15.09); format: functional; conditions: 0.5 h
Rattus norvegicus [4] = test: Antidiabetic activity against streptozotocin-induced Wistar rat assessed as decrease in blood glucose level at 10 mg/kg, po measured at 60 mins by oral glucose test; format: functional, organism-based
[5] = Toxicity in Wistar rat assessed as decrease in body weight at 10 mg/kg, po measured on day 14; format: organism-based; conditions: in vivo, 336 h, time 14 day
[6] = Toxicity in Wistar rat assessed as decrease in body weight at 10 mg/kg, po measured on day 35; format: organism-based; conditions: in vivo, 840 h, time 35 day
Rattus norvegicus [7] = test: Antidiabetic activity against streptozotocin-induced Wistar rat assessed as effect on blood glucose level at 10 mg/kg, po measured on day 1; format: functional, organism-based; conditions: time 1.0 day
Rattus norvegicus [8] = test: Antidiabetic activity against streptozotocin-induced Wistar rat assessed as effect on blood glucose level at 10 mg/kg, po measured on day 4; format: functional, organism-based; conditions: time 4.0 day
Rattus norvegicus [9] = test: Antidiabetic activity against streptozotocin-induced Wistar rat assessed as increase in PPAR-gamma level at 10 mg/kg, po measured upto 35 days by ELISA analysis; format: functional, organism-based; conditions: time <= 35.0 day
Rattus norvegicus [10] = test: Antidiabetic activity against Wistar rat assessed as decrease in total cholesterol level at 10 mg/kg, po measured upto 35 days; format: functional, organism-based; conditions: time <= 35.0 day
Rattus norvegicus [11] = test: Antidiabetic activity against streptozotocin-induced Wistar rat assessed as decrease in HDL level at 10 mg/kg, po measured upto 35 days; format: functional, organism-based; conditions: time <= 35.0 day
Rattus norvegicus [12] = test: Antidiabetic activity against streptozotocin-induced Wistar rat assessed as decrease in triglyceride level at 10 mg/kg, po measured upto 35 days; format: functional, organism-based; conditions: time <= 35.0 day
Rattus norvegicus [13] = test: Antidiabetic activity against streptozotocin-induced Wistar rat assessed as decrease in MDA level at 10 mg/kg, po measured upto 35 days; format: functional, organism-based; conditions: time <= 35.0 day
Rattus norvegicus [14] = test: Antidiabetic activity against streptozotocin-induced Wistar rat assessed as decrease in SOD level at 10 mg/kg, po measured upto 35 days; format: functional, organism-based; conditions: time <= 35.0 day
Rattus norvegicus [15] = test: Antidiabetic activity against streptozotocin-induced Wistar rat assessed as effect on glutathione level at 10 mg/kg, po measured upto 35 days; format: functional, organism-based; conditions: time <= 35.0 day
Rattus norvegicus [16] = test: Antidiabetic activity against Wistar rat assessed as effect on glutathione level at 10 mg/kg, po measured upto 35 days; format: functional, organism-based; conditions: time <= 35.0 day
Rattus norvegicus [17] = test: Antidiabetic activity against streptozotocin-induced Wistar rat assessed as change in blood urea nitrogen level at 10 mg/kg, po measured upto 35 days; format: functional, organism-based; conditions: time <= 35.0 day
Rattus norvegicus [18] = test: Antidiabetic activity against streptozotocin-induced Wistar rat assessed as change in BUN level at 10 mg/kg, po measured upto 35 days; format: functional, organism-based; conditions: time <= 35.0 day
Rattus norvegicus [19] = test: Antidiabetic activity against Wistar rat assessed as increase in serum creatine level at 10 mg/kg, po measured upto 35 days; format: functional, organism-based; conditions: time <= 35.0 day
Rattus norvegicus [20] = test: Antidiabetic activity against streptozotocin-induced Wistar rat assessed as increase in serum ALP level at 10 mg/kg, po measured upto 35 days; format: functional, organism-based; conditions: time <= 35.0 day
Rattus norvegicus [21] = test: Antidiabetic activity against streptozotocin-induced Wistar rat assessed as change in serum SGOT level at 10 mg/kg, po measured upto 35 days; format: functional, organism-based; conditions: time <= 35.0 day
Rattus norvegicus [22] = test: Antidiabetic activity against streptozotocin-induced Wistar rat assessed as change in serum SGPT level at 10 mg/kg, po measured upto 35 days; format: functional, organism-based; conditions: time <= 35.0 day
Rattus norvegicus [23] = test: Antidiabetic activity against streptozotocin-induced Wistar rat assessed as increase in TNF-alpha level in Pancreas at 10 mg/kg, po measured upto 35 days; format: functional, organism-based; conditions: time <= 35.0 day
Rattus norvegicus [24] = test: Antidiabetic activity against streptozotocin-induced Wistar rat assessed as increase in IL1-beta level in Pancreas at 10 mg/kg, po measured upto 35 days; format: functional, organism-based; conditions: time <= 35.0 day
[25] = Toxicity in streptozotocin-induced Wistar rat assessed as changes in organ to body weight ratio at 10 mg/kg, po measured up to 35 days; format: organism-based; conditions: in vivo, 840 h, time < 35 day
[26] = Toxicity in streptozotocin-induced Wistar rat assessed as decrease in basophil count at 10 mg/kg, po measured up to 35 days; format: organism-based; conditions: in vivo, 840 h, time < 35 day
[27] = Toxicity in streptozotocin-induced Wistar rat assessed as decrease in eosinophil count at 10 mg/kg, po measured up to 35 days; format: organism-based; conditions: in vivo, 840 h, time < 35 day
[28] = Toxicity in streptozotocin-induced Wistar rat assessed as change in blood lymphocyte count at 10 mg/kg, po measured up to 35 days; format: organism-based; conditions: in vivo, 840 h, time < 35 day
[29] = Toxicity in streptozotocin-induced Wistar rat assessed as morphological changes in pancrease at 10 mg/kg, po measured up to 35 days; format: organism-based; conditions: in vivo, 840 h, time < 35 day
[30] = Toxicity in streptozotocin-induced Wistar rat assessed as morphological changes in kidney at 10 mg/kg, po measured up to 35 days; format: organism-based; conditions: in vivo, 840 h, time < 35 day
[31] = Toxicity in streptozotocin-induced Wistar rat assessed as decrease in tubular necrosis in kidney at 10 mg/kg, po measured up to 35 days; format: organism-based; conditions: in vivo, 840 h, time < 35 day
[32] = Toxicity in streptozotocin-induced Wistar rat assessed as decrease in glomeruli shrinkage in kidney at 10 mg/kg, po measured up to 35 days; format: organism-based; conditions: in vivo, 840 h, time < 35 day
[33] = Toxicity in streptozotocin-induced Wistar rat assessed as decrease in dilation of renal tubules in kidney at 10 mg/kg, po measured up to 35 days; format: organism-based; conditions: in vivo, 840 h, time < 35 day
Rattus norvegicus [34] = test: Antidiabetic activity against streptozotocin-induced Wistar rat assessed as decrease in blood glucose level at 10 mg/kg, po measured at 30 mins by oral glucose test; format: functional, organism-based
Rattus norvegicus [35] = test: Antidiabetic activity against streptozotocin-induced Wistar rat assessed as increase in serum amylase level at 10 mg/kg, po measured upto 35 days by ELISA analysis; format: functional, organism-based; conditions: time <= 35.0 day
[36] = Toxicity in streptozotocin-induced Wistar rat assessed as morphological changes in liver at 10 mg/kg, po measured up to 35 days; format: organism-based; conditions: in vivo, 840 h, time < 35 day
Alpha amylase = biological target: T2, Alpha amylase (Homo sapiens, UniProt P0DUB6); test: Inhibition of Alpha-amylase (unknown origin); format: protein assay
T2 sequence (P0DUB6 whole entry): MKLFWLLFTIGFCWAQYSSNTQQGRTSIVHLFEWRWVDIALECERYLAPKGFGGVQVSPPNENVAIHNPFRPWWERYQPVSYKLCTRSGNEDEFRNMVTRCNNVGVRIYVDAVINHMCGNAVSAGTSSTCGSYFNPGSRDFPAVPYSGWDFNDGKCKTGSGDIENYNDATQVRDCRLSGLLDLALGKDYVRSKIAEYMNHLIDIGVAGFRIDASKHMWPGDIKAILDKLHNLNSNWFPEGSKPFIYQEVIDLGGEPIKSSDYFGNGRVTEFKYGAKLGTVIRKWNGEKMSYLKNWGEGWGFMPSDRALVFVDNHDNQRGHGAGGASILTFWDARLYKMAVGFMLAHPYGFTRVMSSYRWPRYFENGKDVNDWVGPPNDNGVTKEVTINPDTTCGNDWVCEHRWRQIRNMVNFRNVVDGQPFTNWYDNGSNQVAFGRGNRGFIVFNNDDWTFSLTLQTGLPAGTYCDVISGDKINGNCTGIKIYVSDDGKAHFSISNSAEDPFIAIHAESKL

[37] = Antioxidant activity assessed as DPPH radical scavenging activity; format: functional
Rattus norvegicus [38] = test: Antidiabetic activity against streptozotocin-induced Wistar rat assessed as effect on serum catalase level at 10 mg/kg, po measured upto 35 days; format: functional, organism-based; conditions: time <= 35.0 day
Rattus norvegicus [39] = test: Antidiabetic activity against streptozotocin-induced Wistar rat assessed as change in uric acid level at 10 mg/kg, po measured upto 35 days; format: functional, organism-based; conditions: time <= 35.0 day
Rattus norvegicus [40] = test: Antidiabetic activity against streptozotocin-induced Wistar rat assessed as increase in serum creatine level at 10 mg/kg, po measured upto 35 days; format: functional, organism-based; conditions: time <= 35.0 day

Structure (SMILES)	IC50 (Alpha-glucosidase) [µM]	IC50 (Alpha-amylase) [µM]	IC50 [1] [µM]	IC50 (PANC-1 [2]) [µM]	Flu intensity (PANC-1 [3])	Activity (Rattus norvegicus [4])	Activity [5]	Activity [6]	Activity (Rattus norvegicus [7])	Activity (Rattus norvegicus [8])	Activity (Rattus norvegicus [9])	Activity (Rattus norvegicus [10])	Activity (Rattus norvegicus [11])	Activity (Rattus norvegicus [12])	Activity (Rattus norvegicus [20])	Activity (Rattus norvegicus [21])	Activity (Rattus norvegicus [22])	Activity (Rattus norvegicus [23])	Activity (Rattus norvegicus [24])	Activity [29]	also measured
O=C1S/C(=C\c2ccc(Br)cc2)C(=O)N1Cc1cccc([N+](=O)[O-])c1	20.02	23.9	23.3	62.2	1514	Active	Non-Toxic	Toxic	Active	Active	Active	Active	Active	Active	Active	Active	Active	Active	Active	Non-Toxic	Activity (Rattus norvegicus [13]): Active; Activity (Rattus norvegicus [14]): Active; Activity (Rattus norvegicus [15]): inactive; Activity (Rattus norvegicus [16]): Active; Activity (Rattus norvegicus [17]): Active; Activity (Rattus norvegicus [18]): Active; Activity (Rattus norvegicus [19]): Active; Activity [25]: Non-Toxic; Activity [26]: Non-Toxic; Activity [27]: Non-Toxic; Activity [28]: Non-Toxic; Activity [30]: Non-Toxic; Activity [31]: Non-Toxic; Activity [32]: Non-Toxic; Activity [33]: Non-Toxic
CCOc1cc(/C=C2\SC(=O)N(Cc3cccc([N+](=O)[O-])c3)C2=O)ccc1O	10.33	10.2	14.9	207	1324	Active	Non-Toxic	Toxic	Active	Active	Active	Active	Active	Active	Active	Active	Active	Active	Active	Non-Toxic	Activity (Rattus norvegicus [34]): Active; Activity (Rattus norvegicus [35]): Active; Activity (Rattus norvegicus [13]): Active; Activity (Rattus norvegicus [14]): Active; Activity (Rattus norvegicus [15]): inactive; Activity (Rattus norvegicus [16]): Active; Activity (Rattus norvegicus [17]): Active; Activity (Rattus norvegicus [19]): Active; Activity [25]: Non-Toxic; Activity [26]: Non-Toxic; Activity [27]: Non-Toxic; Activity [28]: Non-Toxic; Activity [30]: Non-Toxic; Activity [31]: Non-Toxic; Activity [33]: Non-Toxic; Activity [36]: Non-Toxic
O=C(O)CN1C(=O)S/C(=C\c2ccc3c(c2)OCO3)C1=O																					IC50 (Alpha amylase): 10.26 mg/L (≈ 33.4 µM); IC50 [37]: 10.78 mg/L (≈ 35.1 µM)
O=C1S/C(=C\c2ccc(Cl)cc2Cl)C(=O)N1Cc1cccc([N+](=O)[O-])c1	20.94	24.1	23.2	152	1474	Active	Non-Toxic		Active	Active					Active	inactive	inactive	Active	Active	Non-Toxic	Activity (Rattus norvegicus [34]): Active; Activity (Rattus norvegicus [35]): Active; Activity (Rattus norvegicus [38]): Active; Activity (Rattus norvegicus [39]): Active; Activity (Rattus norvegicus [40]): Active; Activity [36]: Non-Toxic

Source: ChEMBL document CHEMBL5543083, “3,5-Disubstituted-thiazolidine-2,4-dione hybrids as antidiabetic agents: Design, synthesis, in-vitro and In vivo evaluation” (Eur J Med Chem, 2024)
